Data: article PMC10206040, “Identification of novel anti-amoebic pharmacophores from kinase inhibitor chemotypes” (Frontiers in Microbiology, 2023)
Like-named read-outs stand apart in the source and are kept apart here.

How the values were obtained:
[1] = tested on: Balamuthia mandrillaris (CDC:V039; ATCC 50209) trophozoites; assay: CellTiter-Glo 2.0 trophocidal assay, B. mandrillaris; format: cell-based
Source text: For sub-culturing, 0.25% Trypsin–EDTA (Gibco) cell detachment reagent was used to detach the cells from the culture flasks.

[2] = tested on: Naegleria fowleri (ATCC 30215) trophozoites; assay: microbe, parasite or virus in culture; settings: Naegleria fowleri, read-out: Naegleria fowleri EC50 ± SD, logarithmic trophozoites, 72 h, n = 3 (converted)
Experimental: Trophozoites were routinely grown axenically at 34°C, 5% CO2, in Nelson’s complete medium (NCM) in non-vented 75 cm^2 tissue culture flasks (Olympus), until the cells were 80–90% confluent. For sub-culturing, cells were placed on ice to detach the cells from the culture flasks. […] Complete NCM media is prepared by the addition of 10% fetal bovine serum (FBS) and 100 U/mL penicillin, and 100 μg/mL streptomycin antibiotics.
Trophozoites were routinely cultured as described above and only logarithmic trophozoites were used.
All assays were incubated at each of the parasites’ representative growth temperatures, described above, for 72 h. At the 72-h time point, 25 μL of CellTiter-Glo 2.0 reagent was added to all wells of the 96-well plates by hand. The plates were protected from light and contents were mixed using an orbital shaker at 300 rpm at room temperature for 2 min to induce cell lysis. After shaking, the plates were equilibrated at room temperature for 10 min to stabilize the luminescent signal. The ATP luminescent signal (relative light units; RLUs) were measured […] with a SpectraMax I3X plate reader (Molecular Devices, Sunnyvale, CA, United States). […] Values reported are from a minimum of three biological replicates with standard deviation.

[3] = tested on: Acanthamoeba castellanii T4 isolate (ATCC 50370) trophozoites; assay: CellTiter-Glo 2.0 trophocidal assay, A. castellanii; format: cell-based; settings: Acanthamoeba castellanii, ATCC50370, 72 h, read-out: Acanthamoeba castellanii EC50 ± SD
Source text: This isolate was purchased from American Type Culture Collection (ATCC). […] For sub-culturing, cells were mechanically harvested to detach the cells from the culture flasks.

[4] = Balamuthia mandrillaris, ATCC50209, 72 h, read-out: Balamuthia mandrillaris EC50 ± SD, logarithmic trophozoites, 72 h, n = 3 (converted)
[5] = Balamuthia mandrillaris, ATCC50209, 72 h, logarithmic trophozoites, 72 h, n = 3, read-out: Balamuthia mandrillaris EC50 ± SD
[6] = logarithmic trophozoites, 72 h, n = 3
[7] = Balamuthia mandrillaris, ATCC50209, 72 h, read-out: Balamuthia mandrillaris EC50 ± SD

Structure (SMILES) | EC50 [1, 4] [µM] | EC50 ([2]; 72 h) [µM] | EC50 [3] [µM] | EC50 [1, 5] [µM] | EC50 [3, 6] [µM] | other results
CC(=O)c1ccc2c(c1)c1cc(C(C)=O)ccc1n2CCN1CCCOCC1 [Compound 8j] | 3.3 ± 0.24 | 10 ± 1.4 |  |  |  | 
CC(=O)c1ccc2c(c1)c1cc(C(C)=O)ccc1n2CCNC1CCCC1 [Compound 8k] | 7.4 ± 0.36 |  |  |  |  | 
CC(=O)c1ccc2c(c1)c1cc(C(C)=O)ccc1n2CCN1CCOC[C@H]1C [Compound 8l] | 12 |  |  |  |  | EC50 ([1]; read-out: Balamuthia mandrillaris EC50 ± SD, logarithmic trophozoites, 72 h, n = 3): 13 ± 0.35 µM
Cc1n[nH]c(Nc2cccc3c2CCO3)c1C [Compound S6, N-(2,3-Dihydrobenzofuran-4-yl)-3,4-dimethyl-1H-pyrazol-5-amine] | > 20 |  | > 20 |  |  | 
Cc1n[nH]c(Nc2cccc3c2CN(C)C3=O)c1C [Compound S8, 4-((3,4-Dimethyl-1H-pyrazol-5-yl)amino)-2-methylisoindolin-1-one] | > 20 |  | > 20 |  |  | 
c1cnc(Nc2ccnc3cc(C4CCCNC4)ccc23)cn1 (stereo not drawn) [Compound S18, 7-(Piperidin-3-yl)-N-(pyrazin-2-yl)quinolin-4-amine] |  |  |  | > 20 | > 20 | EC50 ([2]; ATCC30215, 72 h): > 20 µM
c1nc2c(N3CCOCC3)nc(Nc3ccsc3)nc2[nH]1 [Compound S25] |  | > 20 |  | > 20 | > 20 | 
CC(C)(C)c1ccc(Nc2nccc(-c3c(-c4ccc(C(F)(F)F)cc4)nn4ncccc34)n2)cc1 [Compound S26] |  | > 20 | > 20 |  |  | EC50 [1, 7]: > 20 µM
CC(C)(O)c1nn2ncccc2c1-c1ccnc(Nc2ccc(C(N)=O)cc2)n1 [Compound S27] |  | > 20 | > 20 |  |  | EC50 [1, 7]: > 20 µM
c1cnn2ncc(-c3ccncc3)c2c1 [Compound S28] |  | > 20 | > 20 |  |  | EC50 [1, 7]: > 20 µM
N#Cc1cccc(Nc2nccc(-c3c(CO)nn4nc(N5CCOCC5)ccc34)n2)c1 [Compound S29] |  | > 20 | > 20 |  |  | EC50 [1, 7]: > 20 µM
CN1CCCN(c2ncc(-c3ccc4c(Nc5cnccn5)ccnc4c3)cn2)CC1 [Compound S33] |  | > 20 |  | > 20 | > 20 | 
CN1C[C@@H]2C[C@H]1CN2c1ncc(-c2ccc3c(Nc4cnccn4)ccnc3c2)cn1 [Compound S34] |  | > 20 |  | > 20 | > 20 | 
CN1CCC2(CC1)CCN(c1ncc(-c3ccc4c(Nc5cnccn5)ccnc4c3)cn1)CC2 [Compound S35] |  | > 20 |  | > 20 | > 20 | 
CN1C[C@H]2C[C@@H]1CN2c1ncc(-c2ccc3c(Nc4cnccn4)ccnc3c2)cn1 [Compound S36] |  | > 20 |  | > 20 | > 20 | 
CC(=O)c1ccc2c(c1)c1cc(C(C)=O)ccc1n2-c1ccc(N(C)C)cc1 [Compound S37] |  | > 20 |  | > 20 | > 20 | 
CC(=O)c1ccc2c(c1)c1cc(C(C)=O)ccc1n2CCN1CCNCC1 [Compound S38] | > 20 | > 20 | > 20 |  |  | 
CC(=O)c1ccc2c(c1)c1cc(C(C)=O)ccc1n2CCN1CC(F)C1 [Compound S39] | > 20 |  | > 20 |  |  | 
CC(=O)c1ccc2c(c1)c1cc(C(C)=O)ccc1n2CCOC(C)C [Compound S40] | > 20 |  | > 20 |  |  | 
CC(=O)c1ccc2c(c1)c1cc(C(C)=O)ccc1n2CCN1CC(N(C)C)C1 [Compound S41] | > 20 |  | > 20 |  |  | 
CC(=O)c1ccc2c(c1)c1cc(C(C)=O)ccc1n2CCNCCN(C)C [Compound S42] | > 20 |  | > 20 |  |  | 
CC(=O)c1ccc2c(c1)c1cc(C(C)=O)ccc1n2CCn1ccnc1 [Compound S43] | > 20 | > 20 | > 20 |  |  | 
N=C(N)c1ccc(OCCCCCOc2ccc(C(=N)N)cc2)cc1 [Pentamidine, reference compound] |  |  |  | 18.4 ± 1.47 | 4.2 ± 0.08 | EC50 ([2]; ATCC30215, 72 h): > 50 µM
CCC(C)(C)C(=O)O[C@H]1C[C@@H](C)C=C2C=C[C@H](C)[C@H](CC[C@@H]3C[C@@H](O)CC(=O)O3)[C@H]21 [Simvastatin, reference compound] |  |  |  | 6.9 ± 0.04 |  | 
